Read-outs that look alike come from different tables or passages of the source. Where a SMILES comes first, the peptide text is derived from it. [ ]: non-standard residue; d: D form. The star is where a group is joined. NHCH2CH2OH = OCCN*; For = O=C*
Experiments:
[1] = tested on: Streptococcus pyogenes SSI-9; test: Antibacterial activity assay of bead-derived peptides (three concentrations); format: cell-based; parameters: key: +++: inhibition by the 640-fold diluted peptide solution; ++: inhibition by the 160-fold diluted solution; +: inhibition by the 40-fold diluted solution; -: no inhibition; conditions: S. pyogenes
In short: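 Undiluted, 4-fold and 16-fold DMSO-diluted peptide stocks; S. pyogenes SSI-9, 2 × 10^5 CFU, cation-adjusted MHB (50 mg/L Ca2+, 25 mg/L Mg2+) + 5% laked horse blood; 37 °C, 18 h; readout = cell pellet visible or not.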

[2] = Procedure: (§1) Second, we examined the cytotoxicity toward mammalian cancer cells and hemolytic activity of 1. […] Hemolytic activity was evaluated by monitoring hemoglobin leakage from rabbit red blood cells as a consequence of membrane damage. The concentration of 1 required to cause 10% hemoglobin leakage (HC10) was 160 nM. Thus, the P388 cytotoxicity of 1 was 28-fold more sensitive than its hemolytic activity.
(§2) Mammalian cytotoxicity assay of purified peptides.
(§3) B22 was diluted with the growth medium with 2% DMSO to various concentrations as 5-fold serial dilution.
(§4) The collected cells were resuspended into
(§5) the growth medium at 2 × 10^4 cells/mL. Aliquots of the former medium (2% DMSO, 100 µL) containing
(§6) peptides and the latter medium containing P388 cells (100 µL) were mixed in a 96-well cell culture plate
(§7) (TR5003, TrueLine). The final concentration of P388 cells and DMSO were 1 × 10^4 cells/mL and 1%,
(§8) respectively. […]
(§9) were determined by WST -1 assay. A solution of 1-methoxy PMS and WST-1 in the growth medium
(§10) (1-methoxy PMS 0.70 mg/mL in Milli-Q/WST-1 3.6 mg/mL in pH 7.4 HEPES buffer = 1/9) was added to
(§11) each well of the plate (20.0 µL/well). The cells were incubated for 4 h under atmosphere of 5% CO 2 at
(§12) 37 °C. The absorbance of each well at 415 nm was measured using a Benchmark microplate reader
(§13) (Bio-Rad) or Thermo Scientifi c Multiskan GO (Thermo Fisher Scientific). The cytotoxicities of the purified
(§14) peptides were evaluated as IC 50 (nM) by means of three replicates. Sigmoidal curve fittings were performed

[3] = tested on: rabbit red blood cells; conditions: red cells of rabbit, 2 h
Procedure: as §1
Hemolysis assay of purified peptides. […]
with DMSO to various concentrations as 3-fold serial dilution. A 50% suspension of rabbit blood in Alsever's solution was obtained from Nippon Bio -Supp. Center . The blood suspension (250 µL) w as diluted with phosphate buffered saline (no calcium, no magnesium, 1.00 mL). The resultant suspension was centrifuged at 1000 × g for 3 min at 8 °C. The supernatant was discarded, and the collected cells were resuspended in phosphate buffered saline (no calcium, no magnesium, 1.00 mL). The same procedure was repeated (× 3). The resultant suspension (100 µL) was diluted with phosphate buffered saline (no calcium, no magnesium, 4.90 mL) to give 0.2% red blood cells suspension. The 0.2% red blood cells suspension (95.0 µL) and each dilution series of the purified peptide in DMSO (5 .0 µL) were mixed in 2 mL microtube.
supernatant was transferred to a 96-well plate (TR5003, TrueLine). The absorbance of each well at 415 nm was measured using a Thermo Scientific Multiskan GO (Thermo Fisher Scientific). The mixture of Triton X-100/H2O (5/95, 2.0 µL), DMSO (5.0 µL), and the 0.2% red blood cells suspension (95.0 µL) was used to determine 100% hemolysis. The mixture of DMSO (5.0 µL) and the 0.2% red blood cells suspension (95.0 µL) was used to determine 0% hemolysis. The hemolytic activities of tested peptides ( I) were normalized against 100% hemolysis by Triton X -100 (Imax) and 0% hemolysis by DMSO (I0) according to Supplementary Equation 3, where Ix is the UV absorbance.
I = 100 × (Ix – I0) / (Imax – I0) (3)
The hemolytic activities of the purified peptides were evaluated as the concentrations causing 10% hemolysis (HC10, nM) by means of three replicates. Sigmoidal curve fittings were performed on GraphPad Prism (GraphPad software, Supplementary Figure 7).

[4] = tested on: P388 mouse leukemia cell line; conditions: for IC50: 2 h
Procedure: as §1, §2, §3, §4, §5, §6, §7, §8, §9, §10, §11, §12, §13, §14

[5] = IC50, mammalian cytotoxicity assay
[6] = cytotoxicity against P388 cells/IC50

IC50 [4] [nM] | SMILES | antibacterial activity in the library screening [1] | IC50 ([2]; Cytotoxicity IC50) [nM] | IC50 [2, 5] [nM] | Hemolytic activity HC10 (concentration causing 10% hemolysis) [3] [nM] | IC50 [2, 6] [nM] | weaker cytotoxicity than 1 [4] [fold]
 | CC(C)C[C@@H](NC(=O)[C@H](Cc1c[nH]c2ccccc12)NC(=O)[C@@H](CC(C)C)NC(=O)[C@H](Cc1c[nH]c2ccccc12)NC(=O)[C@@H](CC(C)C)NC(=O)[C@H](Cc1c[nH]c2ccccc12)NC(=O)[C@H](NC(=O)[C@@H](NC(=O)[C@H](NC(=O)[C@H](C)NC(=O)[C@H](NC(=O)[C@H](C)NC(=O)CNC(=O)[C@@H](NC=O)C(C)C)C(C)C)C(C)C)C(C)C)C(C)C)C(=O)N[C@@H](Cc1c[nH]c2ccccc12)C(=O)NCCO [A1] (For-VGA[dV]A[dV]V[dV]W[dL]W[dL]W[dL]W-NHCH2CH2OH) | +++ | 4.1 | 3.52 | 240 |  | 
 | CC(C)C[C@@H](NC(=O)[C@H](Cc1c[nH]c2ccccc12)NC(=O)[C@H](NC(=O)[C@@H](NC(=O)[C@H](NC(=O)[C@H](C)NC(=O)[C@H](NC(=O)[C@H](C)NC(=O)CNC(=O)[C@@H](NC=O)C(C)C)C(C)C)C(C)C)C(C)C)C(C)C)C(=O)N[C@@H](Cc1c[nH]c2ccccc12)C(=O)N[C@@H](C(=O)N[C@@H](Cc1c[nH]c2ccccc12)C(=O)N[C@@H](C(=O)N[C@@H](Cc1c[nH]c2ccccc12)C(=O)NCCO)C(C)C)C(C)C [B01] (For-VGA[dV]A[dV]V[dV]W[dL]W[dV]W[dV]W-NHCH2CH2OH) |  | 17 |  | 1100 | 17.5 ± 12 | 
 | CC(C)C[C@@H](NC(=O)[C@H](C)NC(=O)[C@H](NC(=O)[C@H](C)NC(=O)CNC(=O)[C@@H](NC=O)C(C)C)C(C)C)C(=O)N[C@H](C(=O)N[C@@H](C(=O)N[C@@H](Cc1c[nH]c2ccccc12)C(=O)N[C@@H](C(=O)N[C@@H](Cc1c[nH]c2ccccc12)C(=O)N[C@H](CC(C)C)C(=O)N[C@@H](Cc1c[nH]c2ccccc12)C(=O)N[C@H](CC(C)C)C(=O)N[C@@H](Cc1c[nH]c2ccccc12)C(=O)NCCO)C(C)C)C(C)C)C(C)C [B02] (For-VGA[dV]A[dL]V[dV]W[dV]W[dL]W[dL]W-NHCH2CH2OH) |  | 17 | 18.7 | 1400 | 16.8 ± 2.82 | 
 | CC(C)C[C@@H](NC(=O)[C@H](C)NC(=O)CNC(=O)[C@@H](NC=O)C(C)C)C(=O)N[C@@H](C)C(=O)N[C@@H](C(=O)N[C@H](C(=O)N[C@@H](C(=O)N[C@@H](Cc1c[nH]c2ccccc12)C(=O)N[C@@H](C(=O)N[C@@H](Cc1c[nH]c2ccccc12)C(=O)N[C@@H](C(=O)N[C@@H](Cc1c[nH]c2ccccc12)C(=O)N[C@@H](C(=O)N[C@@H](Cc1c[nH]c2ccccc12)C(=O)NCCO)C(C)C)C(C)C)C(C)C)C(C)C)C(C)C)C(C)C [B03] (For-VGA[dL]A[dV]V[dV]W[dV]W[dV]W[dV]W-NHCH2CH2OH) |  | 38 | 35.9 | 2000 | 37.6 ± 1.56 | 
 | CC(C)C[C@@H](NC(=O)[C@H](C)NC(=O)CNC(=O)[C@@H](NC=O)C(C)C)C(=O)N[C@@H](C)C(=O)N[C@@H](C(=O)N[C@H](C(=O)N[C@@H](C(=O)N[C@@H](Cc1c[nH]c2ccccc12)C(=O)N[C@@H](C(=O)N[C@@H](Cc1c[nH]c2ccccc12)C(=O)N[C@H](CC(C)C)C(=O)N[C@@H](Cc1c[nH]c2ccccc12)C(=O)N[C@@H](C(=O)N[C@@H](Cc1c[nH]c2ccccc12)C(=O)NCCO)C(C)C)C(C)C)C(C)C)C(C)C)C(C)C [B04] (For-VGA[dL]A[dV]V[dV]W[dV]W[dL]W[dV]W-NHCH2CH2OH) |  | 41 | 34.3 | 1100 | 40.6 ± 5.95 | 
 | CC(C)C[C@@H](NC(=O)[C@H](C)NC(=O)CNC(=O)[C@@H](NC=O)C(C)C)C(=O)N[C@@H](C)C(=O)N[C@H](CC(C)C)C(=O)N[C@H](C(=O)N[C@H](CC(C)C)C(=O)N[C@@H](Cc1c[nH]c2ccccc12)C(=O)N[C@H](CC(C)C)C(=O)N[C@@H](Cc1c[nH]c2ccccc12)C(=O)N[C@@H](C(=O)N[C@@H](Cc1c[nH]c2ccccc12)C(=O)N[C@@H](C(=O)N[C@@H](Cc1c[nH]c2ccccc12)C(=O)NCCO)C(C)C)[C@H](C)O)C(C)C [B11] (For-VGA[dL]A[dL]V[dL]W[dL]W[dT]W[dV]W-NHCH2CH2OH) |  |  | 289 | 910 | 250 ± 57.7 | 
 | CC(C)C[C@@H](NC(=O)[C@H](C)NC(=O)CNC(=O)[C@@H](NC=O)C(C)C)C(=O)N[C@@H](C)C(=O)N[C@@H](C(=O)N[C@H](C(=O)N[C@@H](C(=O)N[C@@H](Cc1c[nH]c2ccccc12)C(=O)N[C@H](CC(C)C)C(=O)N[C@@H](Cc1c[nH]c2ccccc12)C(=O)N[C@H](CC(C)C)C(=O)N[C@@H](Cc1c[nH]c2ccccc12)C(=O)N[C@@H](C(=O)N[C@@H](Cc1c[nH]c2ccccc12)C(=O)NCCO)C(C)C)[C@H](C)O)C(C)C)C(C)C [B12] (For-VGA[dL]A[dV]V[dT]W[dL]W[dL]W[dV]W-NHCH2CH2OH) |  | 390 | 340 | > 3000 | 387 ± 90.9 | 70
> 1000 | CC(C)C[C@@H](NC(=O)[C@H](C)NC(=O)CNC(=O)[C@@H](NC=O)C(C)C)C(=O)N[C@@H](C)C(=O)N[C@@H](C(=O)N[C@H](C(=O)N[C@@H](C(=O)N[C@@H](Cc1c[nH]c2ccccc12)C(=O)N[C@H](CC(C)C)C(=O)N[C@@H](Cc1c[nH]c2ccccc12)C(=O)N[C@H](CC(C)C)C(=O)N[C@@H](Cc1c[nH]c2ccccc12)C(=O)N[C@H](CC(C)C)C(=O)N[C@@H](Cc1c[nH]c2ccccc12)C(=O)NCCO)[C@H](C)O)C(C)C)C(C)C [B13] (For-VGA[dL]A[dV]V[dT]W[dL]W[dL]W[dL]W-NHCH2CH2OH) |  |  | > 1000 | > 3000 |  | 
> 1000 | CC(C)C[C@@H](NC(=O)[C@H](C)NC(=O)[C@H](NC(=O)[C@H](C)NC(=O)CNC(=O)[C@@H](NC=O)C(C)C)[C@H](C)O)C(=O)N[C@H](C(=O)N[C@H](CC(C)C)C(=O)N[C@@H](Cc1c[nH]c2ccccc12)C(=O)N[C@@H](C(=O)N[C@@H](Cc1c[nH]c2ccccc12)C(=O)N[C@H](CC(C)C)C(=O)N[C@@H](Cc1c[nH]c2ccccc12)C(=O)N[C@@H](C(=O)N[C@@H](Cc1c[nH]c2ccccc12)C(=O)NCCO)C(C)C)[C@H](C)O)C(C)C [B21] (For-VGA[dT]A[dL]V[dL]W[dT]W[dL]W[dV]W-NHCH2CH2OH) | Neither of these peptides exhibited growth inhibition activity |  | > 1000 | > 3000 |  | 
> 1000 | CNC(=O)C[C@@H](NC(=O)[C@@H](NC(=O)[C@@H](CC(C)C)NC(=O)[C@H](C)NC(=O)[C@@H](CC(C)C)NC(=O)[C@H](C)NC(=O)CNC(=O)[C@@H](NC=O)C(C)C)C(C)C)C(=O)N[C@@H](Cc1c[nH]c2ccccc12)C(=O)N[C@H](CC(C)C)C(=O)N[C@@H](Cc1c[nH]c2ccccc12)C(=O)N[C@H](CC(C)C)C(=O)N[C@@H](Cc1c[nH]c2ccccc12)C(=O)N[C@@H](C(=O)N[C@@H](Cc1c[nH]c2ccccc12)C(=O)NCCO)[C@H](C)O [B22] (For-VGA[dL]A[dL]V[dD](NHMe)W[dL]W[dL]W[dT]W-NHCH2CH2OH) | Neither of these peptides exhibited growth inhibition activity |  | > 1000 | > 3000 |  | 
